Legend:
Assay in all cases: NCI60 antitumor screening
Assay type in all cases: cell-based, human
NCI-H522 = settings: Homo sapiens; 10 μM single dose; NCI-H522 (non-small cell lung cancer); read-out: growth inhibition percent (GI%)
KM12 = settings: Homo sapiens; 10 μM single dose; KM12 (colon cancer); read-out: growth inhibition percent (GI%)
NCI-H226 = settings: for inhibition at 10 µM: Homo sapiens, 10 μM single dose, NCI-H226 (non-small cell lung cancer), read-out: growth inhibition percent (GI%)
PC-3 = settings: Homo sapiens; 10 μM single dose; PC-3 (prostate cancer); read-out: growth inhibition percent (GI%)
SW-620 = settings: Homo sapiens; 10 μM single dose; SW-620 (colon cancer); read-out: growth inhibition percent (GI%)
HT29 = settings: Homo sapiens, HT-29; 10 μM single dose; HT29 (colon cancer); read-out: growth inhibition percent (GI%)
BT-549 = settings: Homo sapiens; 10 μM single dose; BT-549 (breast cancer); read-out: growth inhibition percent (GI%)
MDA-MB-435 = settings: Homo sapiens; 10 μM single dose; MDA-MB-435 (melanoma); read-out: growth inhibition percent (GI%)
HS 578T = settings: for inhibition at 10 µM: Homo sapiens, 10 μM single dose, HS 578T (breast cancer), read-out: growth inhibition percent (GI%)
UO-31 = settings: Homo sapiens; 10 μM single dose; UO-31 (renal cancer); read-out: growth inhibition percent (GI%)
786–0 = settings: for inhibition at 10 µM: Homo sapiens, 10 μM single dose, 786–0 (renal cancer), read-out: growth inhibition percent (GI%)
SK-MEL-2 = settings: Homo sapiens; 10 μM single dose; SK-MEL-2 (melanoma); read-out: growth inhibition percent (GI%)
OVCAR-4 = settings: for inhibition at 10 µM: Homo sapiens, 10 μM single dose, OVCAR-4 (ovarian cancer), read-out: growth inhibition percent (GI%)
T-47D = settings: Homo sapiens, T47D; 10 μM single dose; T-47D (breast cancer); read-out: growth inhibition percent (GI%)
K-562 = settings: for inhibition at 10 µM: Homo sapiens, 10 μM single dose, (leukaemia), read-out: growth inhibition percent (GI%)
HCC-2998 = settings: Homo sapiens; 10 μM single dose; HCC-2998 (colon cancer); read-out: growth inhibition percent (GI%)
HCT-15 = settings: Homo sapiens; 10 μM single dose; HCT-15 (colon cancer); read-out: growth inhibition percent (GI%)
CCRF-CEM = settings: Homo sapiens; 10 μM single dose; CCRF-CEM (leukaemia); read-out: growth inhibition percent (GI%)
DU-145 = settings: Homo sapiens, DU-145; read-out: growth inhibition percent (GI%)
SF-295 = settings: Homo sapiens; 10 μM single dose; SF-295 (CNS cancer); read-out: growth inhibition percent (GI%)
SN12C = settings: Homo sapiens; 10 μM single dose; SN12C (renal cancer); read-out: growth inhibition percent (GI%)
M14 = settings: Homo sapiens; 10 μM single dose; M14 (melanoma); read-out: growth inhibition percent (GI%)
NCI-H460 = settings: Homo sapiens; 10 μM single dose; NCI-H460 (non-small cell lung cancer); read-out: growth inhibition percent (GI%)
EKVX = settings: Homo sapiens; 10 μM single dose; EKVX (non-small cell lung cancer); read-out: growth inhibition percent (GI%)
U251 = settings: Homo sapiens, U-251; 10 μM single dose; U251 (CNS cancer); read-out: growth inhibition percent (GI%)
HOP-92 = settings: Homo sapiens; 10 μM single dose; HOP-92 (non-small cell lung cancer); read-out: growth inhibition percent (GI%)
MDA-MB-468 = settings: Homo sapiens; 10 μM single dose; MDA-MB-468 (breast cancer); read-out: growth inhibition percent (GI%)
MALME-3M = settings: Homo sapiens; 10 μM single dose; MALME-3M (melanoma); read-out: growth inhibition percent (GI%)
A549/ATCC = settings: Homo sapiens; 10 μM single dose; A549/ATCC (non-small cell lung cancer); read-out: growth inhibition percent (GI%)
IGROV1 = settings: Homo sapiens, IGROV-1; 10 μM single dose; IGROV1 (ovarian cancer); read-out: growth inhibition percent (GI%)
SNB-75 = settings: for inhibition at 10 µM: Homo sapiens, 10 μM single dose, SNB-75 (CNS cancer), read-out: growth inhibition percent (GI%)
HCT-116 = settings: Homo sapiens; 10 μM single dose; HCT-116 (colon cancer); read-out: growth inhibition percent (GI%)
MOLT-4 = settings: Homo sapiens; 10 μM single dose; MOLT-4 (leukaemia); read-out: growth inhibition percent (GI%)
OVCAR-3 = settings: Homo sapiens; 10 μM single dose; OVCAR-3 (ovarian cancer); read-out: growth inhibition percent (GI%)
NCI-H23 = settings: Homo sapiens; 10 μM single dose; NCI-H23 (non-small cell lung cancer); read-out: growth inhibition percent (GI%)
RPMI-8226 = settings: Homo sapiens; 10 μM single dose; RPMI-8226 (leukaemia); read-out: growth inhibition percent (GI%)
HOP-62 = settings: for inhibition at 10 µM: Homo sapiens, 10 μM single dose, HOP-62 (non-small cell lung cancer), read-out: growth inhibition percent (GI%)
OVCAR-5 = settings: Homo sapiens; 10 μM single dose; OVCAR-5 (ovarian cancer); read-out: growth inhibition percent (GI%)
UACC-62 = settings: Homo sapiens; 10 μM single dose; UACC-62 (melanoma); read-out: growth inhibition percent (GI%)

## CN1CCN(c2nc(SCc3ccccc3)nc(-c3ccc(F)cc3)c2C#N)CC1 [4i, 2-(Benzylthio)-4-(4-fluorophenyl)-6-(4-methylpiperazin-1-yl) pyrimidine-5-carbonitrile]
NCI-H522
  inhibition at 10 µM: 31.7%
KM12
  inhibition at 10 µM: 19.1%
NCI-H226; 10 μM one-dose, Table 1
  GI%: — (GI value > 70%)
NCI-H226
  inhibition at 10 µM: < 10%
PC-3
  inhibition at 10 µM: 31.9%
SW-620
  inhibition at 10 µM: 10%
HT29
  inhibition at 10 µM: 67%
BT-549
  inhibition at 10 µM: < 10%
MDA-MB-435
  inhibition at 10 µM: 12.8%
HS 578T; 10 μM one-dose, Table 1
  GI%: — (GI value > 70%)
HS 578T
  inhibition at 10 µM: 32%
UO-31
  inhibition at 10 µM: 36%
786–0; 10 μM one-dose, Table 1
  GI%: — (GI value > 70%)
786–0
  inhibition at 10 µM: 29.3%
SK-MEL-2
  inhibition at 10 µM: < 10%
OVCAR-4; 10 μM one-dose, Table 1
  GI%: — (GI value > 70%)
OVCAR-4
  inhibition at 10 µM: 22.5%
T-47D
  inhibition at 10 µM: 42.5%
K-562; 10 μM one-dose, Table 1
  GI%: 73.15%
K-562
  inhibition at 10 µM: 73.2%
HCC-2998
  inhibition at 10 µM: < 10%
HCT-15
  inhibition at 10 µM: 46.8%
CCRF-CEM
  inhibition at 10 µM: 37.9%
DU-145
  inhibition at 10 µM: < 10%
SF-295
  inhibition at 10 µM: 12.3%
SN12C
  inhibition at 10 µM: 12.6%
M14
  inhibition at 10 µM: 18.1%
NCI-H460
  inhibition at 10 µM: 35.1%
EKVX
  inhibition at 10 µM: 20.2%
U251
  inhibition at 10 µM: < 10%
HOP-92
  inhibition at 10 µM: 22.7%
MDA-MB-468
  inhibition at 10 µM: 29.2%
MALME-3M
  inhibition at 10 µM: < 10%
A549/ATCC
  inhibition at 10 µM: 38.3%
IGROV1
  inhibition at 10 µM: < 10%
SNB-75; 10 μM one-dose, Table 1
  GI%: — (GI value > 70%)
SNB-75
  inhibition at 10 µM: 41%
HCT-116
  inhibition at 10 µM: 45.8%
MOLT-4
  inhibition at 10 µM: 49.8%
OVCAR-3
  inhibition at 10 µM: 14.4%
NCI-H23
  inhibition at 10 µM: < 10%
RPMI-8226
  inhibition at 10 µM: 56.4%
HOP-62; 10 μM one-dose, Table 1
  GI%: — (GI value > 70%)
HOP-62
  inhibition at 10 µM: 10.3%
OVCAR-5
  inhibition at 10 µM: < 10%
UACC-62
  inhibition at 10 µM: 19.6%

## N#Cc1c(-c2ccc(F)cc2)nc(SCc2ccc([N+](=O)[O-])cc2)nc1N1CCN(c2ccccc2)CC1 [4o, 4-(4-Fluorophenyl)-2-((4-nitrobenzyl)thio)-6-(4-phenylpiperazin-1-yl)pyrimidine-5-carbonitrile]
NCI-H522
  inhibition at 10 µM: < 10%
KM12
  inhibition at 10 µM: < 10%
NCI-H226
  inhibition at 10 µM: < 10%
PC-3
  inhibition at 10 µM: < 10%
SW-620
  inhibition at 10 µM: < 10%
HT29
  inhibition at 10 µM: < 10%
BT-549
  inhibition at 10 µM: < 10%
MDA-MB-435
  inhibition at 10 µM: < 10%
HS 578T
  inhibition at 10 µM: < 10%
UO-31
  inhibition at 10 µM: < 10%
786–0
  inhibition at 10 µM: < 10%
SK-MEL-2
  inhibition at 10 µM: < 10%
OVCAR-4
  inhibition at 10 µM: 12.3%
T-47D
  inhibition at 10 µM: < 10%
K-562
  inhibition at 10 µM: < 10%
HCC-2998
  inhibition at 10 µM: < 10%
HCT-15
  inhibition at 10 µM: < 10%
CCRF-CEM
  inhibition at 10 µM: < 10%
DU-145
  inhibition at 10 µM: < 10%
SF-295
  inhibition at 10 µM: < 10%
SN12C
  inhibition at 10 µM: < 10%
M14
  inhibition at 10 µM: < 10%
NCI-H460
  inhibition at 10 µM: < 10%
EKVX
  inhibition at 10 µM: 13.9%
U251
  inhibition at 10 µM: < 10%
HOP-92
  inhibition at 10 µM: < 10%
MDA-MB-468
  inhibition at 10 µM: 10.9%
MALME-3M
  inhibition at 10 µM: < 10%
A549/ATCC
  inhibition at 10 µM: < 10%
IGROV1
  inhibition at 10 µM: < 10%
SNB-75
  inhibition at 10 µM: 12.4%
HCT-116
  inhibition at 10 µM: < 10%
MOLT-4
  inhibition at 10 µM: < 10%
OVCAR-3
  inhibition at 10 µM: < 10%
NCI-H23
  inhibition at 10 µM: < 10%
RPMI-8226
  inhibition at 10 µM: 15.3%
HOP-62
  inhibition at 10 µM: < 10%
OVCAR-5
  inhibition at 10 µM: < 10%
UACC-62
  inhibition at 10 µM: 18.1%

## Cc1ccc(CSc2nc(-c3ccc(F)cc3)c(C#N)c(N3CCN(C)CC3)n2)cc1 [4l, 4-(4-Fluorophenyl)-2-((4-methylbenzyl)thio)-6-(4-methylpiperazin-1-yl) pyrimidine-5-carbonitrile]
NCI-H522
  inhibition at 10 µM: 33.4%
KM12
  inhibition at 10 µM: < 10%
NCI-H226
  inhibition at 10 µM: < 10%
PC-3
  inhibition at 10 µM: 24.2%
SW-620
  inhibition at 10 µM: < 10%
HT29
  inhibition at 10 µM: 10.6%
BT-549
  inhibition at 10 µM: 10.8%
MDA-MB-435
  inhibition at 10 µM: < 10%
HS 578T
  inhibition at 10 µM: 31.1%
UO-31
  inhibition at 10 µM: 17.6%
786–0
  inhibition at 10 µM: 44.2%
SK-MEL-2
  inhibition at 10 µM: < 10%
OVCAR-4
  inhibition at 10 µM: < 10%
T-47D
  inhibition at 10 µM: 18.1%
K-562
  inhibition at 10 µM: 28.6%
HCC-2998
  inhibition at 10 µM: < 10%
HCT-15
  inhibition at 10 µM: 10.3%
CCRF-CEM
  inhibition at 10 µM: 15.2%
DU-145
  inhibition at 10 µM: < 10%
SF-295
  inhibition at 10 µM: 17.6%
SN12C
  inhibition at 10 µM: 11.9%
M14
  inhibition at 10 µM: < 10%
NCI-H460
  inhibition at 10 µM: < 10%
EKVX
  inhibition at 10 µM: 12.5%
U251
  inhibition at 10 µM: < 10%
HOP-92
  inhibition at 10 µM: 39.3%
MDA-MB-468
  inhibition at 10 µM: < 10%
MALME-3M
  inhibition at 10 µM: 11.7%
A549/ATCC
  inhibition at 10 µM: 13.1%
IGROV1
  inhibition at 10 µM: < 10%
SNB-75
  inhibition at 10 µM: 35.6%
HCT-116
  inhibition at 10 µM: 13.1%
MOLT-4
  inhibition at 10 µM: 10.5%
OVCAR-3
  inhibition at 10 µM: < 10%
NCI-H23
  inhibition at 10 µM: < 10%
RPMI-8226
  inhibition at 10 µM: 15.5%
HOP-62
  inhibition at 10 µM: 12.8%
OVCAR-5
  inhibition at 10 µM: < 10%
UACC-62
  inhibition at 10 µM: 13%

From publication PMC10620772, “Design, synthesis, and biological evaluation of new pyrimidine-5-carbonitrile derivatives as novel anti-cancer, dual EGFR^WT/COX-2 inhibitors with docking studies” (RSC Advances, 2023)
